{"source": "paper PMC12202309", "about": "(International Journal of Neuropsychopharmacology, 2025)", "key": {"in vivo": {"assay": "in vivo", "conditions": "for AUC(0-t): plasma, AUCt plasma, mean (95% CI)", "experimental": "(§1) After a 1-week acclimation period, the mice were randomly assigned to 2 experimental groups of 36 animals each: (1) an LPS group was given a single 4 mg/kg intraperitoneal (IP) injection of lipopolysaccharide (LPS), serotype O55:B05 (Sigma) and (2) a control group received a vehicle (sterile phosphate-buffered saline). […] The volume load for mice weighing 25 g was 125 µL. […] The doses of DMSO and MC were 276 and 25 mg/kg. […] Sampling was performed at 2 intervals in each of the 18 mice injected with LPS and 18 controls. The first blood volume of 150 µL was taken into an EDTA-microvette CB 300 (Sardstedt) from a drop of blood after a small incision at the end of the tail. At the termination interval, the second blood sample was collected by cardiac puncture in terminal anesthesia, and then the animal was put to death by decapitation. […] The injected volume was 1 mL/kg, that is, 25 µL for a 25 g mouse. […] The injected volume was 2.5 mL/kg, that is, […]. After IV administrations, blood was sampled at 3, 5, 10, 20, and 40 minutes, and 1, 1.5, 2, 3, 4, and 6 hours. Blood samples were taken at 3 intervals in each mouse. The first 2 samples of 75 µL each were taken from the retroorbital plexus under brief anesthesia and the third terminal sample was described for oral dosing. Plasma samples were obtained from whole blood by centrifugation at 2000 × g for 5 minutes at 4°C. Whole brain, liver, and intestine were excised and immediately frozen in liquid nitrogen. All samples were stored at −80°C until analysis.\n(§2) Details of the analysis can be found in the Supplementary Materials.\nThe calculation of the point estimate and the 95% bootstrap t-confidence interval for AUCt was performed with the help of the R-package PK (https://cran.r-project.org/web/packages/PK/index.html). Total brain-to-plasma drug partition coefficient (Kp,brain) and unbound brain-to-unbound plasma partition coefficient (Kp,uu, brain) were calculated using Equations 3 and 4: […]"}, "[1]": {"assay": "Population compartmental pharmacokinetic modelling of olanzapine and DMO", "procedure": "(§4) The individual values of the pharmacokinetic parameters were obtained as empirical Bayes estimates.\n(§5) In the second step, the concentration-time data after the intravenous administration of DMO were modelled to assess distribution and elimination of the metabolite. […] The PK parameters of DMO were fixed to the values estimated after a single IV dose of the metabolite. […] The goodness-of-fit achieved by the pharmacokinetic models was assessed with the help of the objective function value and diagnostic plots of 1/observed and predicted concentrations vs. time, 2/ observed vs. individually predicted concentrations, 3/ weighted residuals vs. time and 4/ weighted residuals vs. predicted concentrations. Finally, the mean prediction errors and the mean absolute prediction errors were calculated.\n(§6) The between-animal variability in model parameters were described by an exponential model and a proportional model was used to describe the residual variability."}, "[2]": {"conditions": "C57BL/6N, mouse, in vivo", "procedure": "as §4, §5, §6"}, "[3]": {"assay": "Brain penetration (brain homogenate AUCt, Kp,brain, Kp,uu,brain)", "conditions": "for Kp uu / Kp: C57BL/6N, mouse, brain, 0.5 mg/kg; for Kp uu: Kp,uu,brain; for Kp: Kp,brain; for AUCt brain homogenate: 4 mg/kg PO OL, t = 24 hours, mean (95% CI); for animals with brain homogenate concentration below the detection limit of 0.20 ng/g: PO olanzapine", "experimental": "as §1, §2\nThe calculation of the point estimate and the 95% bootstrap t-confidence interval for AUCt was performed with the help of the R-package PK (https://cran.r-project.org/web/packages/PK/index.html). Total brain-to-plasma drug partition coefficient (Kp,brain) and unbound brain-to-unbound plasma partition coefficient (Kp,uu, brain) were calculated using Equations 3 and 4:\nKp,brain=AUCt,brain/AUCt,plasma\nKp, uu,brain=fu,brain × AUCt,brain/fu, plasma × AUCt,plasma"}, "mice": {"system": "mice", "parameters": "method as in supplement 4", "conditions": "p.o., ref supplement 4; cited from earlier work"}, "[4]": {"parameters": "method as in supplement 9", "conditions": "rat; 15 % (w:v) DMSO (660 mg/kg) in 0.5 % MC p.o.; ref supplement 9; cited from earlier work"}, "[5]": {"assay": "Rapid equilibrium dialysis, binding in brain homogenates", "assay_type": "in vitro ADME, mice", "conditions": "C57BL/6N, mouse; for fraction unbound at 4 h: mean (range), pooled samples, read-out: unbound fraction in the brain homogenate; for fraction unbound at 4 h, 100 ng/mL: pH 7.4, RED control samples spiked at 100 ng/mL, range, read-out: unbound fraction in brain homogenate, control samples", "experimental": "Plasma samples collected from individual mice at each time point were pooled into composite samples due to insufficient sample volumes for performing RED. Similarly, brain homogenate samples from individual time points were pooled. RED was performed according to the manufacturer’s protocol (for details, see the Supplementary Materials). The free drug fraction in plasma was calculated by using Equation 1: […]\nThe free drug fraction in the brain homogenate was determined by using Equation 2, which accounts for the effect of tissue dilution on the unbound fraction:\nfu,brain=1/D/(1/fu,diluted−1)+1/D\nwere D is the dilution factor in the brain homogenate and the fu,diluted associated free fraction determined as the ratio of concentrations in the buffer versus the diluted brain tissue.\n(§3) Rapid Equilibrium Dialysis. Briefly, 50 µL of drug-spiked plasma or 100 µL of 10-fold diluted brain homogenates were added to the sample chambers of the RED device, while 300 µL or 350 µL of phosphate-buffered saline (PBS, pH at 7.4) were added to the corresponding buffer chambers. Each pooled sample was analysed in triplicate. Control samples consisting of plasma and brain homogenates from the study, spiked with clozapine and trazodone at a target concentration of 100 ng/mL, were analysed in each measurement series. Each plate was sealed with aluminium foil and incubated at 37 ± 1 °C with an agitation at 350 rpm on an orbital shaker (Randox PHMP, Grant Instruments Ltd, Shepreth, Cambridgeshire, England) for 4 hours. After incubation, a matrix-matching procedure was performed: 10 µL of each post-dialysis sample was mixed with an equal volume of PBS, while 10 µL of each buffer sample was mixed with the corresponding blank plasma or brain homogenate. Prior to analysis, 20 µL of the mixed plasma or brain homogenate samples were precipitated with 80 µL of acetonitrile containing an internal standard."}, "[6]": {"assay": "Rapid equilibrium dialysis, protein binding in plasma", "assay_type": "in vitro ADME", "conditions": "C57BL/6N, mouse, plasma (pooled samples from the study mice), mean (range)", "experimental": "Plasma samples collected from individual mice at each time point were pooled into composite samples due to insufficient sample volumes for performing RED. Similarly, brain homogenate samples from individual time points were pooled. RED was performed according to the manufacturer’s protocol (for details, see the Supplementary Materials). The free drug fraction in plasma was calculated by using Equation 1:\nas §3, with “Prior to analysis, 20 µL of the mixed plasma or brain homogenate samples were precipitated with 80 µL of acetonitrile containing an internal standard.” left out"}, "[7]": {"conditions": "protonated form; no reference given; cited from earlier work"}}, "note": "“And” between values parts separate entries of the source, which are not always exact repeats. Equal values may be shown once.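 Throughout, for Fp.o. olanzapine: pharmacokinetic model fitted to concentration-time data, with between-animal variability described exponentially, residual error proportional, and effect of LPS injection assessed on clearance and distribution volumes.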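 Throughout, for Q: pharmacokinetic model fitted to concentration-time data, with between-animal variability described exponentially, residual error proportional, and effect of LPS injection assessed on clearance and distribution volumes.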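 Throughout, for V1: pharmacokinetic model fitted to concentration-time data, with between-animal variability described exponentially, residual error proportional, and effect of LPS injection assessed on clearance and distribution volumes.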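 Throughout, for V2: pharmacokinetic model fitted to concentration-time data, with between-animal variability described exponentially, residual error proportional, and effect of LPS injection assessed on clearance and distribution volumes.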"}
{"smiles": "Cc1cc2c(s1)Nc1ccccc1N=C2N1CCN(C)CC1", "note": "[olanzapine]", "values": [{"measurement": "increase of mean plasma AUC24h, LPS mice vs controls", "setting": "in vivo; 4 mg/kg PO olanzapine", "value": 3.8, "unit": "fold"}, {"measurement": "CL/F", "setting": "in vivo; mouse, in vivo, po, 4 mg/kg", "value": 552, "unit": "mL/min/kg"}, {"measurement": "Fp.o. olanzapine", "setting": "[1]; population median (%RSE), reference group controls", "value": "0.075 (12%)"}, {"measurement": "Q", "setting": "[2]", "value": "9.0 (31%) L·hour^−1.kg^-1"}, {"measurement": "V1", "setting": "[2]", "value": "4.1 (13%) L.kg^-1"}, {"measurement": "V2", "setting": "[2]", "value": "3.5 (18%) L.kg^-1"}, {"measurement": "higher absolute bioavailability in LPS mice", "setting": "[2]", "value": 200, "unit": "%"}, {"measurement": "βCL_LPS", "setting": "[2]", "value": "-0.43 (42%)"}, {"measurement": "βF_LPS", "setting": "[2]", "value": "1.14 (14%)"}, {"measurement": "ωCL, percent interindividual variability", "setting": "[2]", "value": "24 (37%)"}, {"measurement": "ωF, percent interindividual variability", "setting": "[2]", "value": "16 (38%)"}, {"measurement": "ωQ, percent interindividual variability", "setting": "[2]", "value": "73 (49%)"}, {"measurement": "ωV1, percent interindividual variability", "setting": "[2]", "value": "45 (32%)"}, {"measurement": "ωV2, percent interindividual variability", "setting": "[2]", "value": "83 (20%)"}, {"measurement": "brain AUC higher in LPS mice than controls", "setting": "[3]; intravenous olanzapine 0.5 mg/kg", "value": 1.8, "unit": "fold"}, {"measurement": "brain AUC higher in LPS mice than controls", "setting": "[3]; oral olanzapine 4 mg/kg", "value": "5.2 fold and 5 fold"}]}
{"smiles": "C[S+](C)[O-]", "note": "[DMSO, dimethyl sulfoxide]", "values": [{"measurement": "LD50", "setting": "mice", "value": "16500 to 24600", "unit": "mg/kg"}]}
{"smiles": "O=C1CCc2cc(OCCCCc3nnnn3C3CCCCC3)ccc2N1", "note": "[cilostazole]", "values": [{"measurement": "increase of AUC for plasma cilostazole by DMSO", "setting": "[4]", "value": 32, "unit": "%"}]}
{"smiles": "Cc1cc2c(s1)Nc1ccccc1N=C2N1CCNCC1", "note": "[DMO, 4’-N-desmethylolanzapine]", "values": [{"measurement": "fraction unbound at 4 h", "setting": "[5]; pH 7.4, LPS mice", "value": 0.088}, {"measurement": "fraction unbound at 4 h", "setting": "[5]; pH 7.4, control mice", "value": 0.087}, {"measurement": "fraction unbound at 4 h", "setting": "[6]; pH 7.4, LPS mice", "value": 0.083}, {"measurement": "fraction unbound at 4 h", "setting": "[6]; pH 7.4, control mice", "value": 0.13}, {"measurement": "increase of mean plasma AUC24h, LPS mice vs controls", "setting": "in vivo; C57BL/6N, mouse, in vivo, 4 mg/kg", "value": 2.6, "unit": "fold"}, {"measurement": "increase of plasma AUC in LPS mice", "setting": "in vivo; C57BL/6N, mouse, in vivo, po", "value": 140, "unit": "%"}, {"measurement": "AUC(0-t)", "setting": "in vivo; C57BL/6N, mouse, iv, 0.5 mg/kg, Controls, 0.5 mg/kg IV DMO, t = 6 hours", "value": 562, "unit": "ng·h/mL"}, {"measurement": "AUC(0-t)", "setting": "in vivo; C57BL/6N, mouse, iv, 0.5 mg/kg, Controls, 0.5 mg/kg IV olanzapine, t = 6 hours", "value": 28.7, "unit": "ng·h/mL"}, {"measurement": "AUC(0-t)", "setting": "in vivo; C57BL/6N, mouse, iv, 0.5 mg/kg, LPS mice, 0.5 mg/kg IV DMO, t = 6 hours", "value": 1690, "unit": "ng·h/mL"}, {"measurement": "AUC(0-t)", "setting": "in vivo; C57BL/6N, mouse, iv, 0.5 mg/kg, LPS mice, 0.5 mg/kg IV olanzapine, t = 6 hours", "value": 57.6, "unit": "ng·h/mL"}, {"measurement": "AUC(0-t)", "setting": "in vivo; C57BL/6N, mouse, po, 4 mg/kg, Controls, 4 mg/kg PO olanzapine, t = 24 hours", "value": 408, "unit": "ng·h/mL"}, {"measurement": "AUC(0-t)", "setting": "in vivo; C57BL/6N, mouse, po, 4 mg/kg, LPS mice, 4 mg/kg PO olanzapine, t = 24 hours", "value": 1070, "unit": "ng·h/mL"}, {"measurement": "clearance", "setting": "[1]; C57BL/6N, mouse, plasma", "value": 10.3, "unit": "mL/min/kg"}, {"measurement": "Q", "setting": "[2]", "value": "2.51 (30%) L·hour^−1.kg^-1"}, {"measurement": "V1", "setting": "[2]", "value": "1.6 (14%) L.kg^-1"}, {"measurement": "V2", "setting": "[2]", "value": "1.49 (14%) L.kg^-1"}, {"measurement": "decrease in the plasma clearance of DMO in LPS mice", "setting": "[2]", "value": 4.8, "unit": "fold"}, {"measurement": "βCL_LPS", "setting": "[2]", "value": "-1.54 (21%)"}, {"measurement": "βV1_LPS", "setting": "[2]", "value": "-1.2 (15%)"}, {"measurement": "βV2_LPS", "setting": "[2]", "value": "-0.56 (38%)"}, {"measurement": "ωCL, percent interindividual variability", "setting": "[2]", "value": "54 (34%)"}, {"measurement": "ωQ, percent interindividual variability", "setting": "[2]", "value": "17 (90%)"}, {"measurement": "ωV1, percent interindividual variability", "setting": "[2]", "value": "37 (18%)"}, {"measurement": "ωV2, percent interindividual variability", "setting": "[2]", "value": "13 (122%)"}, {"measurement": "decrease of median V1 by LPS in comparison to controls", "setting": "[2]; iv", "value": 70, "unit": "%"}, {"measurement": "decrease of median V2 by LPS in comparison to controls", "setting": "[2]; iv", "value": 43, "unit": "%"}, {"measurement": "pKa", "setting": "[7]", "value": 8.8}, {"measurement": "Kp uu", "setting": "[3]; intravenous, abstract, LPS and control mice", "value": "≤ 0.051"}, {"measurement": "Kp", "setting": "[3]; iv, Controls, 0.5 mg/kg IV DMO", "value": 0.077}, {"measurement": "Kp", "setting": "[3]; iv, LPS mice, 0.5 mg/kg IV DMO", "value": 0.039}, {"measurement": "Kp uu", "setting": "[3]; iv, Controls, 0.5 mg/kg IV DMO", "value": 0.051}, {"measurement": "Kp uu", "setting": "[3]; iv, LPS mice, 0.5 mg/kg IV DMO", "value": 0.042}, {"measurement": "AUCt brain homogenate", "setting": "[3]; Controls", "value": "trace levels^b"}, {"measurement": "brain homogenate levels after IV olanzapine", "setting": "[3]; LPS animals and controls, IV olanzapine", "value": "neither the LPS animals nor the controls had any brain homogenate levels of DMO higher than the limits of detection"}, {"measurement": "animals with brain homogenate concentration below the detection limit of 0.20 ng/g", "setting": "[3]; LPS group", "value": "4 of 18"}, {"measurement": "AUCt brain homogenate", "setting": "[3]; LPS mice", "value": "trace levels^b"}, {"measurement": "animals with brain homogenate concentration below the detection limit of 0.20 ng/g", "setting": "[3]; control group", "value": "5 of the 18"}]}
{"smiles": "O=c1n(CCCN2CCN(c3cccc(Cl)c3)CC2)nc2ccccn12", "note": "[trazodone]", "values": [{"measurement": "fraction unbound at 4 h, 100 ng/mL", "setting": "[5]", "value": "0.078 to 0.118"}]}
{"smiles": "CN1CCN(C2=Nc3cc(Cl)ccc3Nc3ccccc32)CC1", "note": "[clozapine]", "values": [{"measurement": "fraction unbound at 4 h, 100 ng/mL", "setting": "[5]", "value": "0.014 to 0.021"}]}
